B1: IL-4: rpIL-4 (R&D Systems, 20 ng/mL) for M2 MΦ polarization (protein, UniProt Q04745 25-133, looked up)
Interleukin-4: HKCDITLQEIIKTLNILTARKNSCMELPVTDVFAAPENTTEKETFCRASTVLRHIYRHHTCMKSLLSGLDRNLSSMANMTCSVHEAKKSTLKDFLERLKTIMKEKYSKC

Key:
SP antibodies in serum = test system: SP antibodies in serum; parameters: species or system C57BL/6 mice; conditions: mouse, in vivo
FMDV = test system: FMDV; parameters: species or system C57BL/6 mice; conditions: mouse, in vivo
porcine naive PBMCs = format: cell-based, pigs
porcine PBMCs = format: cell-based, pigs; conditions: 12 hours
porcine Mo-DCs [1] = assay: Inhibition of phagocytosis by cytochalasin D, cytokine ELISA in Mo-DCs; conditions: 5 μg/mL CytD 45 min before 1 μg/mL antigen
porcine Mo-MΦs [2] = assay: Inhibition of phagocytosis by cytochalasin D, cytokine ELISA in Mo-MΦs
porcine Mo-DCs [3] = format: cell-based, pigs
porcine Mo-MΦs [4] = format: cell-based, pigs

| Molecule | antibody titers measured by SP-O ELISA compared to the control (SP antibodies in serum) | VN titers (FMDV) | increase of neutralizing antibody (VN titers) (FMDV) | Cell proliferation, rank order (porcine naive PBMCs) | further results |
| --- | --- | --- | --- | --- | --- |
| CCCCCCCCCCCCCCCCCCCCCCCCCC(=O)N[C@@H](CO[C@H]1O[C@H](CO)[C@H](O)[C@H](O)[C@H]1O)[C@H](O)[C@H](O)CCCCCCCCCCCCCC [α-Gal (G), α-galactosyl ceramide] | significantly higher | highest | approximately 100 fold | >antigen+MAIT cell agonist (F) | IL23A and IL23R expression (porcine PBMCs): specifically highly expressed |
| C=C1[C@@H](C)[C@H]2[C@H](Cc3ccccc3)NC(=O)[C@]23[C@H](OC(C)=O)/C=C/[C@@](C)(O)C(=O)[C@@H](C)C/C=C/[C@H]3[C@@H]1O [CytD, cytochalasin D] | – | – | – | – | expression of cytokine when antigen is co-cultured after CytD treatment (porcine Mo-DCs [1]): significantly suppressed; expression of cytokine when antigen is co-cultured after CytD treatment (porcine Mo-MΦs [2]; 5 μg/mL CytD 45 min before 1 μg/mL antigen): significantly suppressed; IL-10 expression after CytD treatment (porcine Mo-MΦs [2]; not significantly different from pretreatment levels): slightly suppressed |
| Nc1nc2ncc(C=O)nc2c(=O)[nH]1 [6-Formylpterin (F), 6-formylpterin] | – | high levels | – | >antigen+T cell agonist (R) | antibody titers measured by SP-O ELISA (SP antibodies in serum): increased |
| TNFα | – | – | – | – | IL-1β (porcine Mo-DCs [3]): 432.97; IL-6 (porcine Mo-DCs [3]): 201.33; IL-10 (porcine Mo-DCs [3]): 10.85; IL-12/23p40 (porcine Mo-DCs [3]): 135.67; TNFα (porcine Mo-DCs [3]): 74.00 |
| C=C(C)CCOP(=O)([O-])OP(=O)([O-])[O-].[Li+].[Li+].[Li+] [IPP (I), Isopentenyl pyrophosphate trilithium salt] | significantly higher | highest | approximately 100 fold | >antigen alone | – |
| C/C(=C\COP(=O)([O-])OP(=O)([O-])[O-])CO.[Li+].[Li+].[Li+] [HMP (H), (E)-1-hydroxy-2-methyl-2-butenyl 4-pyrophosphate lithium salt] | significantly higher | – | approximately 100 fold | >antigen+iNKT cell agonist (G) | – |
| B1 | – | – | – | – | IL-1β (porcine Mo-MΦs [4]): 223.43; IL-10 (porcine Mo-MΦs [4]): 1.88; IL-12/23p40 (porcine Mo-MΦs [4]): 29.00 |

Reference: US20230226176A1, “NOVEL IMMUNE ADJUVANT AND VACCINE COMPOSITION INCLUDING THE SAME” (REPUBLIC OF KOREA (ANIMAL AND PLANT […]), priority 2020, published 2023)
